pIC50: −log10 of the molar value.
molecular target: T1, PDE4 enzyme (U937 lysate or recombinant hPDE4); assay: In vitro inhibition of PDE4, Method A ([3H]cAMP SPA enzyme assay); type: biochemical, human; conditions: Biological Example 1, Method A
T1 construct: cDNA containing PDE4D1 was cloned into a baculovirus vector, insect cells (SF9) were then infected and cells cultured to express the PDE4 protein
Method: PDE4 U937 cytoplasmic extracts were prepared by a modified procedure of the assay described in MacKenzie, S. J. and Houslay, M. D., “Action of rolipram on specific PDE4 cAMP phosphodiesterase isoforms and on the phosphorylation of cAMP-response-element-binding protein (CREB) and p38 mitogen-activated protein (MAP) kinase in U937 monocytic cells”, Biochem J. (2000), 347(Pt 2):571-8, by lysis of U937 cells (ATCC: Catalogue No. CRL-159) in M-PER Lysis buffer (Pierce) containing 10% protease inhibitor cocktail (Sigma). The cell lysates were then centrifuged at 30,000 rpm for 15 minutes at 4° C. The supernatants were aliquoted and stored at −80° C.
An alternative source of PDE4 enzymes was from recombinant human PDE4 obtained from baculovirus-SF9 cells expression system. cDNA containing PDE4D1 was cloned into a baculovirus vector, insect cells (SF9) were then infected and cells cultured to express the PDE4 protein. The cells were lysed and used directly in assay or partially purified using standard procedures. The process can be used for other PDE4 and PDE enzymes.
Compounds of the invention were evaluated for inhibitory activity against PDE4 enzymes by the following assay Method A or B.
PDE4 assay based on modified procedure of Phosphodiesterase [^3H]cAMP SPA Enzyme Assay (Amersham Biosciences, code TRKQ 7090). In this assay, PDE4 enzymes converts [^3H]cAMP to [^3H]5′-AMP. The assay is quenched by the addition of SPA yttrium silicate beads which preferentially bind linear nucleotides over cyclic nucleotides in the presence of zinc sulphate.
Reactions were performed in duplicate by the addition of 10 μl PDE4 enzyme (U937 lysate or recombinant hPDE4) to 20 μL of assay mix and 20 μL of test compounds in Isoplates (Wallac) for 30 minutes, at 37° C. The final assay mixture contained: 50 mM Tris (pH 7.5), 8.3 mM MgCl2, 1.7 mM EGTA and [^3H]cAMP (0.025 μCi) (Amersham). Assay was terminated by addition 25 μL SPA beads. The plate was sealed, shaken for 1 minute and then allowed to settle 30 minutes and the cpm determined using a Wallac Micobeta.

SMILES | pIC50
COc1ccc([C@H]2CNC(=O)C(CC(=O)Nc3cccnc3)C2)cc1OC1CCCC1 (stereo partly drawn) [2-((5S)-5-(3-(cyclopentyloxy)-4-methoxyphenyl)-2-oxopiperidin-3-yl)-N-(pyridin-3-yl)acetamide] | 6.34
COc1ccc([C@H]2CNC(=O)C(CC(=O)O)C2)cc1OC1CCCC1 (stereo partly drawn) [2-((5S)-5-(3-(cyclopentyloxy)-4-methoxyphenyl)-2-oxopiperidin-3-yl)acetic acid] | 5.93
COc1ccc([C@H]2CNC(=O)[C@@H](CC3CCOC3)C2)cc1OC1CCCC1 (stereo partly drawn) [(3R,5S)-5-(3-(cyclopentyloxy)-4-methoxyphenyl)-3-((tetrahydrofuran-3-yl)methyl)piperidin-2-one] | 5.83
COc1ccc([C@H]2CNC(=O)[C@H](Cc3cccnc3)C2)cc1OC1CCCC1 [(3S,5S)-5-(3-(cyclopentyloxy)-4-methoxyphenyl)-3-(3-pyridinylmethyl)piperidin-2-one] | 6.31
C=CCC1C[C@@H](c2ccc(OC)c(OC3CCCC3)c2)CNC1=O (stereo partly drawn) [(5S)-3-allyl-5-(3-(cyclopentyloxy)-4-methoxyphenyl)piperidin-2-one] | 6.54
COc1ccc([C@H]2CNC(=O)C(CCNc3ccccc3)C2)cc1OC1CCCC1 (stereo partly drawn) [(5S)-5-(3-(cyclopentyloxy)-4-methoxyphenyl)-3-(2-(phenylamino)ethyl)piperidin-2-one] | 6.67
COc1ccc([C@@H]2CCC(=O)N(C(=O)c3ccccc3)C2)cc1OC1CCCC1 [(S)-1-benzoyl-5-(3-(cyclopentyloxy)-4-methoxyphenyl)piperidin-2-one] | 6.73
COc1ccc([C@@H]2CCC(=O)N(Cc3ccccc3)C2)cc1OC1CCCC1 [(S)-1-benzyl-5-(3-(cyclopentyloxy)-4-methoxyphenyl)piperidin-2-one] | 6.37
C=CCC1(CC=C)C[C@@H](c2ccc(OC)c(OC3CCCC3)c2)CNC1=O [(S)-3,3-diallyl-5-(3-(cyclopentyloxy)-4-methoxyphenyl)piperidin-2-one] | 6.19
COc1ccc([C@H]2CNC(=O)/C(=C/c3cccc(C)c3)C2)cc1OC1CCCC1 [(S,E)-5-(3-(cyclopentyloxy)-4-methoxyphenyl)-3-(3-methylbenzylidene)piperidin-2-one] | 6.41

Continued by rising pIC50, values first:

pIC50 | SMILES
6.19 | COc1ccc([C@H]2CNC(=O)[C@@H](Cc3nc4cc([N+](=O)[O-])ccc4o3)C2)cc1OC1CCCC1 [(3R,5S)-5-(3-cyclopentyloxy-4-methoxyphenyl)-3-(5-nitro-2-benzoxazolylmethyl)piperidin-2-one]
6.35 | COc1ccc([C@H]2CNC(=O)C(CC(O)CO)C2)cc1OC1CCCC1 (stereo partly drawn) [(5S)-5-(3-(cyclopentyloxy)-4-methoxyphenyl)-3-(2,3-dihydroxypropyl)piperidin-2-one]
6.43 | COc1ccc2oc(C[C@H]3C[C@@H](c4ccc(OC)c(OC5CCCC5)c4)CNC3=O)cc2c1 [(3R,5S)-5-(3-cyclopentyloxy-4-methoxyphenyl)-3-(5-methoxy-2-benzofurylmethyl)piperidin-2-one]
6.84 | COc1ccc([C@@H]2CCC(=O)NC2)cc1-c1ccccc1 [(S)-5-(6-methoxybiphenyl-3-yl)piperidin-2-one]

Reference: US20100168167A1, “Piperidinones Useful in the Treatment of Inflammation” (priority 2007, published 2010)
